The numbers were not newly measured in publication PMC6151550, “Inhibitory Effect of Selaginellins from Selaginella tamariscina (Beauv.) Spring against Cytochrome P450 and Uridine 5′-Diphosphoglucuronosyltransferase Isoforms on Human Liver Microsomes” (Molecules : A Journal of Synthetic Chemistry and Natural …, 2017), which cites them from elsewhere.

Structures are written as SMILES.

Series [1] relates to UGT1A1. Set-up: method as in PMID 25216634. The conditions noted are these: read-out: Ki against UGT1A1-mediated SN-38 glucuronidation; cited from earlier work.
Series [2] relates to CYP2C8. The conditions noted are these: cited from earlier work.

Consider `CC(C)=CCc1cc2c(cc1O)oc(=O)c1c3ccc(O)cc3oc21` [psoralidin], for which the Ki – broadly, a dissociation constant, usually derived from enzyme kinetics or from competition with a known ligand – in series [1] is 5.8 µM.

Take `O=c1c(O)c(-c2ccc(O)c(O)c2)oc2cc(O)cc(O)c12` [quercetin]: the IC50 (usually the point on the concentration scale where inhibition reaches its midpoint) in series [2] is […].

As to `Cc1c(C)c2c(c(C)c1O)CCC(C)(COc1ccc(CC3SC(=O)NC3=O)cc1)O2` (stereo not drawn) [troglitazone], the IC50 in series [2] is 2.3 µM.
